US20160320368A1, “METHOD AND APPARATUS FOR PREDICTING EFFECTIVE DOSE OR SENSITIVITY OF 5-HYDROXY-1H-IMIDAZOLE-4-CARBOXAMIDE, METHOD FOR DETERMINING AMOUNT OF XANTHOSINE MONOPHOSPHATE, AND TREATMENT AGENT AND METHOD FOR TREATING MYELODYSPLASTIC SYNDROME” (FUJIFILM Corporation, priority 2014, published 2016)

Experiments:
[1] = system: XMP in blood cells of healthy human; assay: XMP in blood cells of healthy human (hemolysis, Example 4); assay type: cell-based; conditions: 37° C., 8 hours, non-treated = 100%
Method: (§1) A ¾ hydrate of Compound A was used as a test compound.
450 μL of the blood collected from two healthy individuals by heparinized blood collection (Analyte A and Analyte B) was added to each of 1.5 mL tubes, and 50 μL of a PBS solution of the test compound (0 μg/mL, 10 μg/mL, 30 μg/mL, 100 μg/mL, 300 μg/mL, or 1000 μg/mL in terms of Compound A) for each concentration was added to each tube. The reaction mixture was stirred in an incubator at 37° C. for 8 hours. Then, BD Pharm Lyse (555899, manufactured by Becton, Dickinson and Company, Inc.) was added to the blood (2 mL of BD Pharm Lyse was added relative to 0.2 mL of blood). After stirring with a vortex mixer, the reaction solution was protected from light and allowed to stand at room temperature for 15 min. After centrifugation at 20° C. and 1000×g for 5 min, the supernatant was removed and suspended in 10 mL of a PBS solution. After centrifugation at 4° C. and 1000×g for 5 min, the supernatant was removed, and 1000 μL of methanol was added to each tube, followed by stirring. Thereafter, 500 μL of ultrapure water was added thereto, followed by further stirring. 600 μL of the reaction solution was divided into each of two tubes, and 400 μL of chloroform was added to each tube. The reaction solution was stirred and then centrifuged at 4° C. and 10000×g for 15 min. 400 μL of the aqueous phase was recovered and added to an ultrafiltration tube, followed by centrifugation at 12° C. and 9200×g for 2 hours. The filtrates were combined and then dried under reduced pressure at 40° C. for 2 hours by using a centrifugal evaporator. After drying, the resulting product was stored in a freezer at −80° C.
The samples stored in (1) and (2) were returned to room temperature and 40 μL of ultrapure water was added to each sample. The mixture was stirred and centrifuged at 4° C. and 21500×g for 5 min. 35 μL of the supernatant was transferred to a vial. After storage at 4° C., XMP in samples was determined in the LC-MS/MS determination instrument, LC conditions and MS/MS conditions described in Example 3 (3).
Amounts of XMP (%) were calculated assuming that the XMP value of a non-Compound A treated group (peak area value) is defined as 100%.

[2] = system: XMP in human myeloid leukemia cells SKM-1; assay: XMP in human myeloid leukemia cells SKM-1 (LC-MS/MS); assay type: cell-based; conditions: 24 hours; for Amount of XMP (%): non-treated = 100%; for Decline rate of XMP: 100−amount of XMP (%)
Method: as §1
SKM-1 was used as a human myeloid leukemia cell.
2×10^7 human myeloid leukemia cells were suspended in a culture flask containing 18 mL of an RPMI1640 medium (manufactured by Life Technologies, Inc.). 2 mL of a PBS solution of the test compound (0 μg/mL, 10 μg/mL, 30 μg/mL, 100 μg/mL, 300 μg/mL, or 1000 μg/mL in terms of Compound A) was added to the flask which was then incubated at 37° C. under 5% CO2 for 24 hours. After centrifugation at 20° C. and 300×g for 3 min, the supernatant was removed and suspended in 10 mL of a PBS solution. 10 μL of the suspension was aliquoted and cells were counted using TC10 (manufactured by BioRad). After centrifugation and 300×g for 5 min, the supernatant was removed. After stirring with addition of 1000 μL of methanol, 500 μL of ultrapure water was added thereto, followed by further stirring. 600 μL of the reaction solution was divided into each of two tubes, and 400 μL of chloroform was added to each tube. The reaction solution was stirred and then centrifuged at 4° C. and 10000×g for 15 min. 400 μL of the aqueous phase was recovered and added to an ultrafiltration tube, followed by centrifugation at 12° C. and 9200×g for about 2 hours. The filtrates were pooled in one tube and then dried under reduced pressure at 40° C. for 2 hours by using a centrifugal evaporator. After drying, the resulting product was stored in a freezer at −80° C.
The samples obtained in (1) were returned to room temperature, to each of which 50 μL of 5 mmol/L ammonium formate containing 4 ng/μL of 2′-fluoro-2′-deoxycytidine monophosphate was then added, followed by stirring. 12.5 μL of the supernatant was transferred to a vial, and XMP in the samples was determined in the following determining conditions.
Amounts of XMP (%) were calculated according to the following equation, assuming that the XMP value of a non-Compound A treated group is defined as 100%.
Amount of XMP (%)=((peak area of XMP)/((peak area of 2′-fluoro-2′-deoxycytidine monophosphate)×(number of cells)))/((peak area of XMP of untreated group)/((peak area of 2′-fluoro-2′-deoxycytidine monophosphate of untreated group) (number of cells of untreated group)))×100
The decline rate of XMP (%) was calculated according to the following equation.
Decline rate of XMP (%)=100−amount of XMP (%)

Which “Amount of XMP (%) Analyte A” value ([1]; Compound A 1 μg/mL) does the source give for `NC(=O)c1nc[nH]c1O` [Compound A, 5-Hydroxy-1H-imidazole-4-carboxamide] here?
Its value is 60%.

And the “Amount of XMP (%) Analyte B” value ([1]; Compound A 1 μg/mL)?
The value was 51%.

And the “Amount of XMP (%) Analyte A” value ([1]; Compound A 3 μg/mL)?
Its value is 45%.

What about the “Amount of XMP (%) Analyte B” value ([1]; Compound A 3 μg/mL) of the same molecule?
Its value is 37%.

What about the “Amount of XMP (%) Analyte A” value ([1]; Compound A 10 μg/mL) of the same molecule?
Its value is 37%.

What about the “Amount of XMP (%) Analyte B” value ([1]; Compound A 10 μg/mL) of the same molecule?
Its value is 25%.

What about the “Amount of XMP (%) Analyte A” value ([1]; Compound A 30 μg/mL) of the same molecule?
Its value is 27%.

And the “Amount of XMP (%) Analyte B” value ([1]; Compound A 30 μg/mL)?
Its value is 18%.

And the “Amount of XMP (%) Analyte A” value ([1]; Compound A 100 μg/mL)?
The value was 16%.

And the “Amount of XMP (%) Analyte B” value ([1]; Compound A 100 μg/mL)?
The value was 10%.

What about the “Amount of XMP (%)” value ([2]; SKM-1, Compound A 1 μg/mL) of the same molecule?
The value was 57%.

And the “Decline rate of XMP” value ([2]; SKM-1, Compound A 1 μg/mL)?
The value was 43%.

And the “Amount of XMP (%)” value ([2]; SKM-1, Compound A 10 μg/mL)?
The value was 45%.

What about the “Decline rate of XMP” value ([2]; SKM-1, Compound A 10 μg/mL) of the same molecule?
The value was 55%.

And the “Amount of XMP (%)” value ([2]; SKM-1, Compound A 100 μg/mL)?
The value was 17%.

And the “Decline rate of XMP” value ([2]; SKM-1, Compound A 100 μg/mL)?
Its value is 83%.
